{
  "source": "patent US5804576A",
  "about": "“Derivatives of 5-androsten-17-ones and 5-androstan-17-ones” (Research Corporation Technologies, Inc., priority 1986, dated 1998)",
  "key": {"[1]": {"system": "Epstein-Barr virus-induced transformation of human lymphocytes", "settings": "cited from earlier work"}, "[2]": {"system": "3H-thymidine incorporation in mouse epidermis", "settings": "in vivo; cited from earlier work"}, "[3]": {"system": "mammalian glucose-6-phosphate dehydrogenase (G6PDH)", "settings": "cited from earlier work"}, "mouse breast epithilum": {"system": "mouse breast epithilum", "settings": "in vivo; cited from earlier work"}, "[4]": {"system": "TPA (Tumor Promoter) Stimulation of Mouse Epidermal DNA", "experiment": "Inhibition of TPA stimulation of mouse epidermal DNA synthesis (3H-thymidine incorporation), oral", "format": "in vivo, mouse (ICR male)", "source_text": "Synthesis rate by orally administered steroids.\nThe inhibition of tumor promoter stimulation of mouse epidermal DNA synthesis rate by steroids may also contribute to cancer preventive activity. The following assay is used:\n(§1) ICR male mice (7-9 weeks old) were shaved on the back 1-2 days before use. Only mice showing no hair regrowth were used. Animals were orally intubated with a particular steroid suspended by homogenization in sesame oil or with sesame oil alone (controls). One hour later TPA (10 μg in 0.2 ml of acetone) or acetone vehicle was applied topically to the shaved skin. Twenty hours later, mice were injected i.p. with 60 μCi of ^3 H-thymidine 20 minutes before sacrifice. The animals were killed by cervical dislocation and the residual hair was removed with a depilatory agent. Epidermal scrapings were prepared according to the procedures of Hennings et al. (Cancer Res. 28, 53, 1968), homogenized in distilled water at 4° C., and the macromolecules precipitated with 0.4N trichloroacetic acid (TCA). Following 6 washes with absolute ethanol at room temperature, the nucleic acids were hydrolyzed with 0.5N TCA at 70° C. for 5 minutes. The hydrolysate (0.2 ml aliquots) were counted in an Intertechnique scintillation counter and assayed for DNA by the diphenylamine reaction.\n(§2) The data are expressed as counts per minute (cpm) of tritium per μg of DNA.\nA similar oral dose-response experiment with compound 16 and DHEA was performed.\n(§3) Both of the above tests, i.e., the inhibition of mammalian glucose-6-phosphate dehydrogenase (G6PDH) and the inhibition of tumor promoter (TPA) stimulation of ^3 H-thymidine incorporation in mouse epidermis are recognized as indicators of cancer prophylactic activity. The following Table compares the efficacy of representative compounds of the present invention in these two tests with that of DHEA:\n(§4) Male ICR mice were orally intubated with steroid suspended in sesame oil (0.5 ml/mouse) at the indicated dose. Mice not receiving steroid were given sesame oil alone. One hour later mice received topical application of TPA and 20 hours later the rate of ^3 H-thymidine incorporation into the epidermis was determined as described in Table 4.\nas §4, with “TPA,” for “TPA”"}, "[5]": {"system": "TPA stimulation in DNA synthesis rate (mouse epidermis)", "experiment": "Inhibition of TPA stimulation of mouse epidermal DNA synthesis, intraperitoneal", "format": "in vivo, mouse (ICR male)", "settings": "i.p. dose-response", "protocol": "as §1, §2\nCompound 2 or 3 in comparison with DHEA by Intraperitoneal Injection.\nSteroids were suspended in sterile 95% saline--5% Emulphor and injected intraperitoneally. Otherwise conditions were the same as when steroids were orally administered."}, "rat uterus": {"system": "rat uterus", "experiment": "Uterotrophic test, subcutaneous (Compound 2 vs. DHEA)", "format": "in vivo", "settings": "for Mean Uterine Weight: n = 4 or 5", "protocol": "Twenty-two day old rats were obtained from Charles River Laboratories. Animals were used at 29 days of age. Test steroids were suspended by homogenization in sesame oil. Rats were orally intubated at 1-2 P.M. for 3 days with a test steroid in sesame oil or with sesame oil alone (control). On the 4th day the animals were killed and the uteri were removed and weighed.\nCompound 2 vs. DHEA. Compounds Administered by Subcutaneous Injection\nSteroids were dissolved in 2 ml ethanol and brought up to 5 ml volume with propylene glycol. Concentrations were such that 1 μl/gm body weight delivered the indicated dose."}, "[6]": {"experiment": "Anti-obesity test (body weight, food consumption)", "format": "in vivo, mouse (male A/J)", "settings": "n = 5", "protocol": "Male A/J mice (5 weeks old) were obtained from the Jackson Laboratory and were housed in polycarbonate cages (5 mice/cage) in animal quarters maintained at 24°±1° C. with 12 hours of light and 12 hours of darkness each day. One week after arrival, the mice were placed on a chow diet containing varying concentrations of DHEA or other steroid. Animals were weighed weekly; food consumption was determined weekly by subtracting the amount of food remaining in the cage from the amount added.\nMale A/J (5 weeks old) were obtained from the Jackson Laboratory and were housed in polycarbonate cages (5 mice/cage) in animal quarters maintained at 24°±1° C. with 12 hours of light and 12 hours of darkness each day. One week after arrival, the mice were placed on a diet containing either DHEA, 19, or without steroid. Animals were weighed weekly. The concentration of DHEA or 19 used in the food was 0.54%.\nMale A/J mice (5 weeks old) were obtained from the Jackson Laboratory and were housed in polycarbonate cages (5 mice/cage) in animal quarters maintained at 24°±1° C. with 12 hours of light and 12 hours of darkness each day. One week after arrival, the mice were placed on a show diet containing DHEA, 16, or 21 at 0.36%. Animals were weighed weekly."}, "[7]": {"target": "T1, purified bovine adrenal G6PDH (Bos taurus, UniProt F1MMK2)", "T1 construct": "full-length, wild type, no tag", "T1 sequence (F1MMK2 31-70)": "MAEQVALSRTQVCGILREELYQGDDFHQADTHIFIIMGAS", "T1 sequence (F1MMK2 101-575)": "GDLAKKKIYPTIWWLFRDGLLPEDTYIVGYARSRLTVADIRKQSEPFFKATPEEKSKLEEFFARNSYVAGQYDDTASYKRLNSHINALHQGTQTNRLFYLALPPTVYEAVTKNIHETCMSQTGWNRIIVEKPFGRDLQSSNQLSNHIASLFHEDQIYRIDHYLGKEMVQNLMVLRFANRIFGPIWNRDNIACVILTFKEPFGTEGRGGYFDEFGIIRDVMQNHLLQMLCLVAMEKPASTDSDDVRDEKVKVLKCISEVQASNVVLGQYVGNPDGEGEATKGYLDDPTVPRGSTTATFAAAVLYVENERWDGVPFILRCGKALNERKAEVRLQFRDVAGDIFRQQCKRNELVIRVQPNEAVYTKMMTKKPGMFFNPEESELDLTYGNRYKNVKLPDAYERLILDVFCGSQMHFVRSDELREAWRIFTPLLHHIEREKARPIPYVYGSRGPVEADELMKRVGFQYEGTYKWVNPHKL", "experiment": "Inhibition of purified bovine adrenal G6PDH", "format": "biochemical", "settings": "read-out: Percent Inhibition (G6PDH); for inhibition at 0.1 µM: Conc. 0.1 μm; for inhibition at 1 µM: Conc. 1 μm; for inhibition at 10 µM: Conc. 10 μm", "source_text": "The compounds listed below are screened as inhibitors of purified bovine adrenal G6PDH activity as one predictor of cancer preventive action. The assay for testing the inhibition of purified bovine adrenal G6PDH is according to the procedure by Oertel, G. W. and Rebelein, I. in Biochem. Biophys. Acta, 184, 459-460 (1969). The results are given below in Table I:\nas §3, with “DHEA: […]” for “DHEA:”"}},
  "note": "Where two headings read alike, the source gives them in different places.",
  "data": [
    {"smiles": "C[C@]12CC[C@H](O)C[C@@H]1CC[C@@H]1[C@@H]2CC[C@]2(C)C(=O)[C@H](Br)C[C@@H]12", "note": "[16α-bromo-epiandrosterone, 3β-hydroxy-16α-bromo-5α-androstan-17-one]", "values": [
      {"measurement": "inhibition of Epstein-Barr virus-induced transformation (in words)", "setting": "[1]", "result": "inhibitors of Epstein-Barr virus-induced transformation of human lymphocytes"},
      {"measurement": "3H-thymidine incorporation in mouse epidermis (in words)", "setting": "[2]", "result": "more active than DHEA"},
      {"measurement": "inhibition of mammalian G6PDH (in words)", "setting": "[3]", "result": "more potent inhibitor of mammalian G6PDH than DHEA"},
      {"measurement": "inhibition of mammalian G6PDH (in words)", "setting": "[3]; listed as 16α-Br-epiandrosterone", "result": "more active than DHEA in inhibiting G6PDH"},
      {"measurement": "rate of [3H] thymidine incorporation into breast epithelium (in words)", "setting": "mouse breast epithilum", "result": "more active than DHEA"}
    ]},
    {"smiles": "C[C@]12CC[C@H](O)C[C@@H]1CC[C@@H]1[C@@H]2CC[C@]2(C)C(=O)CC[C@@H]12", "note": "[Compound 2]", "values": [
      {"measurement": "blocking the TPA stimulation in DNA synthesis rate (in words)", "setting": "[4]; 200 mg/kg or 100 mg/kg oral", "result": "not active at 200 mg/kg or 100 mg/kg"},
      {"measurement": "blocking the TPA stimulation in DNA synthesis rate, compared with DHEA (in words)", "setting": "[5]", "result": "about as active as DHEA"},
      {"measurement": "Mean Uterine Weight", "setting": "rat uterus; 10 mg/kg s.c.", "result": "151 ± 32", "unit": "Mgs"},
      {"measurement": "Mean Uterine Weight", "setting": "rat uterus; 60 mg/kg s.c.", "result": "127 ± 32", "unit": "Mgs"},
      {"measurement": "estrogenic activity (in words)", "setting": "rat uterus; rat uterotrophic test, s.c.", "result": "Neither compounds 16 nor 2 are estrogenic"},
      {"measurement": "mean weekly weight", "setting": "[6]; 0.35% of diet, week 0", "result": "21.8 ± 1.6", "unit": "grams"},
      {"measurement": "mean weekly weight", "setting": "[6]; 0.35% of diet, week 1", "result": "21.8 ± 1.3", "unit": "grams"},
      {"measurement": "mean weekly weight", "setting": "[6]; 0.35% of diet, week 2", "result": "22.0 ± 1.2", "unit": "grams"},
      {"measurement": "mean weekly weight", "setting": "[6]; 0.35% of diet, week 3", "result": "22.8 ± 1.3", "unit": "grams"},
      {"measurement": "mean weekly weight", "setting": "[6]; 0.35% of diet, week 4", "result": "24.2 ± 1.1", "unit": "grams"},
      {"measurement": "mean weekly weight", "setting": "[6]; 0.35% of diet, week 5", "result": "24.4 ± 1.7", "unit": "grams"},
      {"measurement": "mean weekly weight", "setting": "[6]; 0.35% of diet, week 6", "result": "24.8 ± 1.5", "unit": "grams"},
      {"measurement": "mean weekly weight", "setting": "[6]; 0.35% of diet, week 7", "result": "25.4 ± 1.7", "unit": "grams"},
      {"measurement": "mean weekly weight", "setting": "[6]; 0.7% of diet, week 0", "result": "21.3 ± 1.8", "unit": "grams"},
      {"measurement": "mean weekly weight", "setting": "[6]; 0.7% of diet, week 1", "result": "20.6 ± 2.3", "unit": "grams"},
      {"measurement": "mean weekly weight", "setting": "[6]; 0.7% of diet, week 2", "result": "20.6 ± 0.5", "unit": "grams"},
      {"measurement": "mean weekly weight", "setting": "[6]; 0.7% of diet, week 3", "result": "20.8 ± 0.8", "unit": "grams"},
      {"measurement": "mean weekly weight", "setting": "[6]; 0.7% of diet, week 4", "result": "22.6 ± 0.6", "unit": "grams"},
      {"measurement": "mean weekly weight", "setting": "[6]; 0.7% of diet, week 5", "result": "22.4 ± 0.5", "unit": "grams"},
      {"measurement": "mean weekly weight", "setting": "[6]; 0.7% of diet, week 6", "result": "23.5 ± 0.9", "unit": "grams"},
      {"measurement": "mean weekly weight", "setting": "[6]; 0.7% of diet, week 7", "result": "23.8 ± 0.8", "unit": "grams"},
      {"measurement": "inhibition at 0.1 µM", "setting": "[7]", "result": 36, "unit": "%"},
      {"measurement": "inhibition at 1 µM", "setting": "[7]", "result": 64, "unit": "%"},
      {"measurement": "inhibition at 10 µM", "setting": "[7]", "result": 82, "unit": "%"}
    ]},
    {"smiles": "C[C@]12CCCC[C@@H]1CC[C@@H]1[C@@H]2CC[C@]2(C)C(=O)CC[C@@H]12", "note": "[Compound 3]", "values": [
      {"measurement": "activity compared with DHEA, TPA stimulation (in words)", "setting": "[4]; 200 mg/kg oral", "result": "somewhat more active than DHEA"},
      {"measurement": "blocking the TPA stimulation in DNA synthesis rate, compared with DHEA (in words)", "setting": "[5]", "result": "more active in blocking the TPA stimulation in DNA synthesis rate"},
      {"measurement": "mean weekly weight", "setting": "[6]; 0.35% of diet, week 0", "result": "21.8 ± 2.2", "unit": "grams"},
      {"measurement": "mean weekly weight", "setting": "[6]; 0.35% of diet, week 1", "result": "22.6 ± 1.8", "unit": "grams"},
      {"measurement": "mean weekly weight", "setting": "[6]; 0.35% of diet, week 2", "result": "23.6 ± 1.8", "unit": "grams"},
      {"measurement": "mean weekly weight", "setting": "[6]; 0.35% of diet, week 3", "result": "24.8 ± 1.8", "unit": "grams"},
      {"measurement": "mean weekly weight", "setting": "[6]; 0.35% of diet, week 4", "result": "24.6 ± 1.8", "unit": "grams"},
      {"measurement": "mean weekly weight", "setting": "[6]; 0.35% of diet, week 5", "result": "24.8 ± 1.9", "unit": "grams"},
      {"measurement": "mean weekly weight", "setting": "[6]; 0.7% of diet, week 0", "result": "21.6 ± 2.6", "unit": "grams"},
      {"measurement": "mean weekly weight", "setting": "[6]; 0.7% of diet, week 1", "result": "20.0 ± 1.9", "unit": "grams"},
      {"measurement": "mean weekly weight", "setting": "[6]; 0.7% of diet, week 2", "result": "21.3 ± 1.8", "unit": "grams"},
      {"measurement": "mean weekly weight", "setting": "[6]; 0.7% of diet, week 3", "result": "21.8 ± 1.6", "unit": "grams"},
      {"measurement": "mean weekly weight", "setting": "[6]; 0.7% of diet, week 4", "result": "22.0 ± 1.6", "unit": "grams"},
      {"measurement": "mean weekly weight", "setting": "[6]; 0.7% of diet, week 5", "result": "21.4 ± 1.1", "unit": "grams"},
      {"measurement": "inhibition at 0.1 µM", "setting": "[7]", "result": 10, "unit": "%"},
      {"measurement": "inhibition at 1 µM", "setting": "[7]", "result": 69, "unit": "%"},
      {"measurement": "inhibition at 10 µM", "setting": "[7]", "result": 80, "unit": "%"}
    ]}
  ]
}
